Data published in PMC5078989, “Targeted inhibition of the COP9 signalosome for treatment of cancer” (Nature Communications, 2016).

Tested on: panel of cancer cell lines
Test: Cell viability (CellTiter-Glo) dose-response across cancer cell line panel;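 on EC50: after 72 h compound incubation with CellTiter-Glo ATP readout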
Format: cell-based, human
Conditions: for EC50: Homo sapiens
Description: Next, we explored the effect of CSN5 inhibition on the viability of cancer cells. To obtain a comprehensive picture, we generated dose–response curves with a CSN5 inhibitor across more than 500 cancer cell lines in a previously described standardized setting[47] (Supplementary Data 1).
A standardized CellTiter-Glo Assay (Promega #G7570) based on the quantification of ATP was applied according to the manufacturer's protocol to measure the amount of viable cells in culture. In brief, cells were seeded into 384-well plates at optimal density for each cell line. After 4 h, compounds were added at different concentrations in growth medium and incubated for another 72 h in a humidifying chamber at 37 °C and 5% CO2. […] EC50 values were calculated from the plot of percentage of inhibition versus inhibitor concentration using the nonlinear regression analysis software Origin 7.5SR6 (OriginLab Corp.).

## CC(C)C[C@H](NC(=O)[C@H](Cc1ccccc1)NC(=O)c1cnccn1)B(O)O [Bortezomib]
SR-786, SR-786
  EC50: 2.21 nM
ST486, ST486
  EC50: 6.31 nM
SU-DHL10, SU-DHL-10
  EC50: 14.5 nM
SU-DHL-4, SU-DHL-4
  EC50: 3.28 nM
SU-DHL-8, SU-DHL-8
  EC50: 3.8 nM
SUM52, cell line SUM-52
  EC50: 5.48 nM
SUM52PE
  EC50: 6.21 nM
SUP-M2, SUP-M2
  EC50: 3.28 nM
SW480, SW480
  EC50: 7.08 nM
SW837, SW837
  EC50: 5.87 nM
SW948, SW948
  EC50: 7.28 nM
SW1088, SW 1088
  EC50: 5.94 nM
SW1271, cell line SW 1271
  EC50: 21.5 nM
SW1353, SW 1353
  EC50: 39.3 nM
SW1417, SW1417
  EC50: 6.52 nM
SW1573, SW 1573
  EC50: 20.5 nM
SW1783, SW 1783
  EC50: 16.4 nM
SW1990, SW 1990
  EC50: 8.71 nM
SW-620, SW620
  EC50: 7.95 nM
T47D, T-47D
  EC50: 10.4 nM
T84, T84
  EC50: 12.1 nM
T98G
  EC50: 9.62 nM
  AMAX: -96.5841
T-24, T24
  EC50: 9.77 nM
TC-71, TC-71
  EC50: 11.4 nM
TE-4
  EC50: 5.89 nM
TE-6, TE-6
  EC50: 43.9 nM
TE-10, TE-10
  EC50: 11.2 nM
TE-11, cell line TE-11
  EC50: 28.9 nM
TE-15, cell line TE-15
  EC50: 16.7 nM
TEN
  EC50: 9.94 nM
TF-1, TF-1
  EC50: 1.67 nM
THP-1, THP-1
  EC50: 6.6 nM
TOV21G, cell line TOV-21G
  EC50: 4.25 nM
TOV112D, TOV-112D
  EC50: 28.7 nM
TT2609-C02
  EC50: 19.3 nM
U266B1
  EC50: 3.37 nM
U-118-MG, U-118 MG
  EC50: 7.81 nM
U-251, U-251 MG
  EC50: 6.91 nM
U-937, U-937
  EC50: 5.81 nM
UACC-62, UACC-62
  EC50: 19.5 nM
UACC-257, UACC-257
  EC50: 10.9 nM
UMUC3, UM-UC-3
  EC50: 15.1 nM
VM-CUB-1, VM-CUB1
  EC50: 10.1 nM
VMRC-RCW
  EC50: 5.3 nM
  AMAX: -96.9199
WM 266-4, WM-266-4
  EC50: 24.4 nM
WM793, WM-793
  EC50: 15.5 nM
WM983B, WM-983B
  EC50: 8.77 nM
WM-88
  EC50: 7.78 nM
WM-115, WM-115
  EC50: 6.28 nM
WM-1799, WM1799
  EC50: 7.42 nM
WSUDLCL2, WSU-DLCL2
  EC50: 4.13 nM
YAPC
  EC50: 22.7 nM
YKG-1, YKG1
  EC50: 7.27 nM
YMB-1
  EC50: 16.2 nM
  AMAX: -91.0668
Z-138, cell line Z-138
  EC50: 5.73 nM
ZR-75-1, ZR-75-1
  EC50: 21.1 nM
ZR-75-30, ZR-75-30
  EC50: 10.2 nM
Cell line AGS
  EC50: 9.36 nM
Cell line BDCM
  EC50: 7.98 nM
Cell line EB1
  EC50: 6.47 nM
Cell line EB2
  EC50: 6.46 nM
Cell line GCT
  EC50: 19 nM
Cell line GI-1
  EC50: 8.94 nM
Cell line H4
  EC50: 11.5 nM
Cell line HH
  EC50: 3.05 nM
Cell line HuG1-N
  EC50: 1.83 nM
Cell line JHH-5
  EC50: 17 nM
Cell line KS-1
  EC50: 10.1 nM
Cell line KURAMOCHI
  EC50: 30.9 nM
Cell line LC-1/sq-SF
  EC50: 18.8 nM
Cell line LP-6
  EC50: 10.3 nM
Cell line MEL-HO
  EC50: 5.3 nM
Cell line MJ
  EC50: 2.8 nM
Cell line MOG-G-UVW
  EC50: 19.9 nM
Cell line Mel285
  EC50: 8.2 nM
Cell line NCI-H2330
  EC50: 32.2 nM
Cell line OMM2.3
  EC50: 12.1 nM
Cell line OMM2.5
  EC50: 21.7 nM
Cell line PC-3
  EC50: 14.3 nM
Cell line RERF-LC-MS
  EC50: 41.7 nM
Cell line RKO
  EC50: 8.53 nM
Cell line RL
  EC50: 3.25 nM
Cell line T778
  EC50: 18.6 nM
Cell line TE 617.T
  EC50: 6.87 nM
Cell line TE-1
  EC50: 15.6 nM
Cell line TE-5
  EC50: 7.97 nM
Cell line VMRC-RCZ
  EC50: 8.46 nM
Cell line WS1
  EC50: 17.6 nM
Hs 611.T
  AMAX: -95.5359
Hs 729
  AMAX: -96.5684
Hs 936.T
  AMAX: -95.7878
Hs 940.T
  AMAX: -97.1382
IGR-1
  AMAX: -97.3166
JHOM-1
  AMAX: -95.2005
JVM-3
  AMAX: -96.4391
KARPAS-620
  AMAX: -98.4285
KCL-22
  AMAX: -97.2427
KHM-1B
  AMAX: -96.7668
KLE
  AMAX: -91.799
KMS-28BM
  AMAX: -96.7467
KO52
  AMAX: -96.777
KU812
  AMAX: -97.0553
KYM-1
  AMAX: -96.8984
KYO-1
  AMAX: -96.2465
Ki-JK
  AMAX: -96.7338
L-363
  AMAX: -96.7867
LAMA-84
  AMAX: -97.7452
LCLC-97TM1
  AMAX: -96.2648
LCLC-103H
  AMAX: -95.0382
LMSU
  AMAX: -95.8427
LU99
  AMAX: -96.2849
LXF-289
  AMAX: -97.2241
Li-7
  AMAX: -96.9283
MB 157
  AMAX: -95.9545
MHH-NB-11
  AMAX: -96.8993
MOLM-16
  AMAX: -96.6028
MOLP-8
  AMAX: -96.4824
MONO-MAC-1
  AMAX: -98.0152
MONO-MAC-6
  AMAX: -96.8971
NCI-H28
  AMAX: -96.1421
NCI-H841
  AMAX: -95.8407
NCI-H1184
  AMAX: -95.7721
NCI-H1341
  AMAX: -97.2357
NCI-H1869
  AMAX: -96.9482
NCI-H2073
  AMAX: -96.9774
NOMO-1
  AMAX: -95.3675
OC 316
  AMAX: -96.5256
OCI-AML2
  AMAX: -96.7921
OCI-AML3
  AMAX: -95.7952
OCI-AML5
  AMAX: -97.923
OCI-M1
  AMAX: -95.2925
ONCO-DG-1
  AMAX: -96.4992
OS-RC-2
  AMAX: -96.3701
OUMS-23
  AMAX: -95.8674
OV7
  AMAX: -92.7444
P31/FUJ
  AMAX: -96.7178
PA-TU-8988S
  AMAX: -97.262
PE/CA-PJ41 (clone D2)
  AMAX: -95.4895
RI-1
  AMAX: -96.2187
RMUG-S
  AMAX: -96.7615
RVH-421
  AMAX: -95.9743
SF126
  AMAX: -95.9565
SK-N-SH
  AMAX: -96.5195
SNU-216
  AMAX: -96.337
SW620
  AMAX: -96.6127
SW837
  AMAX: -95.7546
SW948
  AMAX: -95.7047
SW 1783
  AMAX: -94.9618
T84
  AMAX: -98.3103
T-47D
  AMAX: -97.6577
THP-1
  AMAX: -96.3023
U-118 MG
  AMAX: -95.817
UACC-257
  AMAX: -95.0265
Across all cell lines of the panel, 72 h
  Amax (high-concentration effect level): −95% to −100
All cell lines of a selection from the panel (Fig. 3b)
  AMAX: ≤ −95%
